Measured values taken from patent US9585957B2, “Adenosine receptor agonists and antagonists to modulate T cell responses” (THE JOHNS HOPKINS UNIVERSITY, priority 2007, dated 2017).
Like-named read-outs stand apart in the source and are kept apart here.

Legend:
[1] = system: 6.5 TCR transgenic T cells; assay: Anergy and LAG-3 induction in primary 6.5 TCR transgenic CD4+ T cells incubated with HA and CGS, then rechallenged; format: cell-based, mice
Procedure: Splenocytes and lymphocytes from A2a receptor wt or null 6.5^+ mice (see below) were harvested and enriched for CD4^+ T cells via negative selection with the CD4^+ T cell isolation kit and LS MACs column (all from Miltenyi Biotech, Auburn, Calif.). […] The T cells were rechallenged for 3-4 hours with 100 ug/mL HA class II peptide, GolgiStop (BD PharMingen) and irradiated APCs.
The cells were harvested, mRNA isolated with Trizol and cDNA was generated. RT-PCR was performed as previously described (Safford et al. Nat Immunol. 2005; 6:472-480).
Splenocytes and lymphocytes from A2a receptor wt or null, 6.5^+ mice were harvested and enriched for CD4′ T cells via negative selection with the CD4^+ T cell isolation kit and LS MACs column (all from Miltenyi Biotech, Auburn, Calif.). […] Irradiated splenocytes from mice of the same A2a receptor genotype were used as APCs, at a 10:1 ratio with T cells. After 3 days, the T cells were harvested and isolated via a ficoll gradient, washed extensively and immediately rechallenged for intracellular staining Briefly, the 1×10^5 T cells were stimulated for 3-4 hours with 5×10^5 irradiated A2a receptor wt APCs, […] HA class II peptide and a 1:1000 dilution of GolgiStop (BD PharMingen), in a total volume of […]. After the stimulation, the cells were washed, stained with anti-6.5 and anti-CD4 antibodies, permeablized and fixed, then stained with anti-IFN-y antibody. Finally, the cells were washed and IFN-y production of […], 6.5^+ T cells was analyzed by flow cytometry.

A.E7 T cell clones = assay: Cytokine production and CD25 expression of A.E7s stimulated with anti-CD3 and anti-CD28 in the presence of CGS; format: cell-based; settings: for IC50: T-cell
Procedure: Studies were conducted to determine the effects of A2a receptor stimulation on T cell function. A.E7 is a clonotypic CD4', Th1 T cell clone specific for pigeon cytochrome c (PCC) and is maintained as previously described (Powell, […]. & Schwartz, R. H. Inhibition of cell cycle progression by rapamycin induces T cell clonal anergy even in the presence of costimulation. J Immunol 162, 2775-84 (1999)). A.[…] were rendered anergic with anti-CD3 or by incubation with APC, PCC and 1 pM CGS-21680. For antibody induced anergy, 6-well plates were previously coated with anti-CD3 three hours prior to stimulation and washed with PBS. For mock stimulations, the well was not coated with anti-CD3. A.[…] were incubated in the coated well overnight at 37° C., then harvested and washed extensively and rested (24 hours for CAMP measurement, 4-6 days for proliferation and cytokine production). […] To assess proliferation to PCC, T cells were extensively washed and 5×10^6 cells were added to 50×10^4 irradiated BIO.A splenocytes and increasing doses of PCC in triplicate in a 96-well flat-bottomed plate. After 48 hours, cells were pulsed with [^3H] thymidine and harvested 16 hrs later. Tritium incorporation was determined by a Packard Matrix 96 direct beta counter (Packard bioscience). […] All conditions were done in triplicate and were cultured overnight. Supernatant was collected and assessed for cytokine levels (eBioscience for IL-2, IFN-y, TNF-a; R&D Systems for GM-CSF) as per manufacturers' instructions. For each sample, multiple dilutions of the supernatant were assayed and concentration was determined based upon the dilution that best fit the most linear aspect of the standard curve. For CD25 measurements, the cells used for cytokine production were stained with anti-CD25, harvested and measured by flow cytometry.

[2] = system: ERK phosphorylation, jun B, AP-1; assay: Western blot for phospho-ERK and jun B, and EMSA for AP-1, after T cell stimulation with or without CGS; format: cell-based, mice
Procedure: For phospho-ERK and total ERK Western blots, splenocytes from 6.5^+ mice were stimulated overnight with 10 ug/mL HA class II peptide then harvested and enriched for CD4^+ T cells. CD4^+ purified T cells were then stimulated in 500 uL with soluble anti-CD3 (10 ug/mL) and soluble anti-CD28 (1:20 dilution).
Nuclear extracts from CD4^+ purified 6.5^+ T cells that were prepared. The AP-1 probe was: 5′-CGCTTGATGACTCAGCCGGAA-3′. The NFkB probe was: 5′-AGTTGAGGGGACTTTCCCAGGC-3′.

## CCNC(=O)[C@H]1O[C@@H](n2cnc3c(N)nc(NCCc4ccc(CCC(=O)O)cc4)nc32)[C@H](O)[C@@H]1O [CGS, 2-p-(2-carboxyethyl)phenethyl-amino-5-N-ethyl-carboxamidoadenosine]
[1]; A2a receptor Wt 6.5 T cells, HA with 1 μM CGS during primary stimulation (FIG. 3a)
  IFN-γ production upon rechallenge by intracellular staining: hyporesponsive upon subsequent stimulation
[1]; A2a receptor null 6.5 T cells, HA with 1 μM CGS (FIG. 3a)
  CGS-induced anergy in A2a receptor null T cells: resistant to CGS-induced anergy
[1]; CD4+ 6.5+ primary T cells, irradiated APCs and HA, 1 μM CGS, 3 days, mRNA (FIG. 3b)
  LAG-3 expression: increase in LAG-3 expression
[1]; CGS plus exogenous IL-2
  induction of LAG-3 with exogenous IL-2 added: abrogated
A.E7 T cell clones; A.E7 T cell clones activated with anti-CD3 and anti-CD28 in the presence of CGS
  cytokine production: dose-dependent inhibition
A.E7 T cell clones; read-out: ID50, inhibition of GM-CSF production
  IC50: 9.1 nM
A.E7 T cell clones; read-out: ID50, inhibition of IFN-γ production
  IC50: 760 nM
A.E7 T cell clones; read-out: ID50, inhibition of IL-2 production
  IC50: 4.7 nM
A.E7 T cell clones; read-out: ID50, inhibition of TNF-α production
  IC50: 100 nM
A.E7 T cell clones; anti-CD3 and anti-CD28, 20 nM CGS (FIG. 1d)
  production of the chemokine MIP-1α: not inhibited
A.E7 T cell clones; anti-CD3 and anti-CD28, 1 μM CGS (FIG. 1b)
  TCR-induced CD25 expression: did not inhibit
A.E7 T cell clones; anti-CD3 and anti-CD28 in the presence of the A2a receptor agonist, 20 nM CGS (FIG. 1d)
  IL-2 production: markedly decreased
[2]; Signal 1+2, 1 μM CGS (FIG. 3d)
  ERK phosphorylation: inhibited ERK phosphorylation
[2]; T cell stimulation, 1 μM CGS (FIG. 3e)
  jun B expression in the nucleus: reduced jun B expression
[2]; T cell stimulation, 1 μM CGS (FIG. 3f)
  AP-1 binding (EMSA): lowered AP-1 binding
